Structures can show the parent of a compound that is named as a salt.
biological target: T1, human P2Y12 receptor (Homo sapiens, UniProt Q9H244); assay: P2Y12 receptor binding assay; settings: CHO cells with recombinant expression of the human P2Y12 receptor; tritium-labeled 2-methyl-S-ADP; RT, 2 hours
T1 construct: expressed in transfected cells; host or cells: CHO cells
Procedure: P2Y12 Receptor Binding Assay
Chinese Hamster Ovary (CHO) cells with recombinant expression of the human P2Y12 receptor were cultured in 24 well cell-culture plates. Cells were washed three times with binding buffer (50 mM Tris pH 7.4, 100 mM NaCl, 1 mM EDTA, 0.5% BSA). The cells were then incubated with 0.5 ml per well binding buffer containing tritium-labeled 2-methyl-thio-adenosine 5′-diphosphate (2-methyl-S-ADP) (between 100′000 and 300′000 dpm per well) and various concentrations of test compounds. After incubation at RT for 2 hours, cells were washed three times with binding buffer. Then, cells were solubilized by addition of 0.5 ml solubilization buffer (SDS, NaOH, EDTA). The content of each well was then transferred into beta-counter vials and 2.0 ml of Ultima Gold Scintillation liquid was added.

T1 sequence (Q9H244 whole entry): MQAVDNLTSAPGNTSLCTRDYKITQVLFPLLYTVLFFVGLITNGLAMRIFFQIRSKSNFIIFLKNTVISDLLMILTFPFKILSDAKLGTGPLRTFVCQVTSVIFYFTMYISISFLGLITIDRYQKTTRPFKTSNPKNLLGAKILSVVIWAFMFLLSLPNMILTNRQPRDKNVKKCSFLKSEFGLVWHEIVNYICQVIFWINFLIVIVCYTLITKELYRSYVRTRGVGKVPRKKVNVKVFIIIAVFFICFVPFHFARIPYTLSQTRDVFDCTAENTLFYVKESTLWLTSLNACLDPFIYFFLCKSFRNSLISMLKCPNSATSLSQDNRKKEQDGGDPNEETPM

| SMILES | IC50 [nM] |
| --- | --- |
| CCCCOC(=O)N1CCN(C(=O)[C@@H](NC(=O)c2csc(-c3ccccc3)n2)C(C)C)CC1 [Example 36, 4-{(S)-3-Methyl-2-[(2-phenyl-thiazole-4-carbonyl)-amino]-butyryl}-piperazine-1-carboxylic acid butyl ester] | 104 |
| CCCCOC(=O)N1CCN(C(=O)[C@H](CO)NC(=O)c2csc(-c3ccccc3)n2)CC1 [Example 38, 4-{(S)-3-Hydroxy-2-[(2-phenyl-thiazole-4-carbonyl)-amino]-propionyl}-piperazine-1-carboxylic acid butyl ester] | 71 |
| CCCCOC(=O)N1CCN(C(=O)[C@H](CO)NC(=O)c2nc(-c3ccccc3)sc2CCC(=O)O)CC1 [Example 40, 4-((S)-2-{[5-(2-Carboxy-ethyl)-2-phenyl-thiazole-4-carbonyl]-amino}-3-hydroxy-propionyl)-piperazine-1-carboxylic acid butyl ester] | 43 |
| CCCCOC(=O)N1CCN(C(=O)[C@H](CP(=O)(O)O)NC(=O)c2csc(-c3ccc(F)cc3)n2)CC1 [Example 41, 4-((R)-2-{[2-(4-Fluoro-phenyl)-thiazole-4-carbonyl]-amino}-3-phosphono-propionyl)-piperazine-1-carboxylic acid butyl ester] | 6 |
| CCCCOC(=O)N1CCN(C(=O)[C@H](CP(=O)(OCC)OCC)NC(=O)c2nc(-c3ccccc3)sc2-c2ccccc2)CC1 [Example 42, 4-{(R)-3-(Diethoxy-phosphoryl)-2-[(2,5-diphenyl-thiazole-4-carbonyl)-amino]-propionyl}-piperazine-1-carboxylic acid butyl ester] | 2190 |
| CCCCOC(=O)N1CCN(C(=O)[C@H](CP(=O)(O)O)NC(=O)c2nc(-c3ccccc3)sc2-c2ccccc2)CC1 [Example 43, 4-{(R)-2-[(2,5-Diphenyl-thiazole-4-carbonyl)-amino]-3-phosphono-propionyl}-piperazine-1-carboxylic acid butyl ester] | 13 |
| CCCCOC(=O)N1CCN(C(=O)[C@H](CP(=O)(OCC)OCC)NC(=O)c2nc(-c3ccccc3)sc2N2CCN(C)CC2)CC1 [Example 44, 4-((R)-3-(Diethoxy-phosphoryl)-2-{[5-(4-methyl-piperazin-1-yl)-2-phenyl-thiazole-4-carbonyl]-amino}-propionyl)-piperazine-1-carboxylic acid butyl ester] | 4180 |
| CCCCOC(=O)N1CCN(C(=O)[C@H](CP(=O)(O)O)NC(=O)c2nc(-c3ccccc3)sc2N2CCN(C)CC2)CC1 [Example 45, 4-((R)-2-{[5-(4-Methyl-piperazin-1-yl)-2-phenyl-thiazole-4-carbonyl]-amino}-3-phosphono-propionyl)-piperazine-1-carboxylic acid butyl ester; hydrochloride] | 3 |
| CCCCOC(=O)N1CCN(C(=O)[C@H](CP(=O)(OCC)OCC)NC(=O)c2nc(-c3ccccc3)sc2N(C)CCCC)CC1 [Example 46, 4-[(R)-2-{[5-(Butyl-methyl-amino)-2-phenyl-thiazole-4-carbonyl]-amino}-3-(diethoxy-phosphoryl)-propionyl]-piperazine-1-carboxylic acid butyl ester] | 821 |
| CCCCOC(=O)N1CCN(C(=O)[C@H](CP(=O)(O)O)NC(=O)c2nc(-c3ccccc3)sc2N(C)CCCC)CC1 [Example 47, 4-((R)-2-{[5-(Butyl-methyl-amino)-2-phenyl-thiazole-4-carbonyl]-amino}-3-phosphono-propionyl)-piperazine-1-carboxylic acid butyl ester] | 3 |
| CCCCOC(=O)N1CCN(C(=O)[C@H](CP(=O)(O)O)NC(=O)c2nc(-c3ccccc3)c(Br)s2)CC1 [Example 48, 4-{(R)-2-[(5-Bromo-4-phenyl-thiazole-2-carbonyl)-amino]-3-phosphono-propionyl}-piperazine-1-carboxylic acid butyl ester] | 6 |
| CCCCOC(=O)N1CCN(C(=O)[C@H](CP(=O)(O)O)NC(=O)c2nc(-c3ccccc3)c(-c3ccccc3)s2)CC1 [Example 49, 4-{(R)-2-[(4,5-Diphenyl-thiazole-2-carbonyl)-amino]-3-phosphono-propionyl}-piperazine-1-carboxylic acid butyl ester] | 152 |

The remaining lines, values ahead:

| IC50 [nM] | SMILES |
| --- | --- |
| 268 | CCCCOC(=O)N1CCN(C(=O)CNC(=O)c2nc(-c3ccccc3)sc2/C=C/C(=O)OCC)CC1 [Example 30, 4-(2-{[5-((E)-2-Ethoxycarbonyl-vinyl)-2-phenyl-thiazole-4-carbonyl]-amino}-acetyl)-piperazine-1-carboxylic acid butyl ester] |
| 19 | CCCCOC(=O)N1CCN(C(=O)CNC(=O)c2nc(-c3ccccc3)sc2/C=C/C(=O)O)CC1 [Example 31, 4-(2-{[5-((E)-2-Carboxy-vinyl)-2-phenyl-thiazole-4-carbonyl]-amino}-acetyl)-piperazine-1-carboxylic acid butyl ester] |
| 157 | CCCCOC(=O)N1CCN(C(=O)CNC(=O)c2nc(-c3ccccc3)sc2CCC(=O)OCC)CC1 [Example 32, 4-(2-{[5-(2-Ethoxycarbonyl-ethyl)-2-phenyl-thiazole-4-carbonyl]-amino}-acetyl)-piperazine-1-carboxylic acid butyl ester] |
| 31 | CCCCOC(=O)N1CCN(C(=O)CNC(=O)c2nc(-c3ccccc3)sc2CCC(=O)O)CC1 [Example 33, 4-(2-{[5-(2-Carboxy-ethyl)-2-phenyl-thiazole-4-carbonyl]-amino}-acetyl)-piperazine-1-carboxylic acid butyl ester] |
| 85 | CCCCOC(=O)N1CCN(C(=O)CNC(=O)c2nc(-c3ccccc3)sc2C=CCOC)CC1 [Example 34, 4-(2-{[5-(3-Methoxy-propenyl)-2-phenyl-thiazole-4-carbonyl]-amino}-acetyl)-piperazine-1-carboxylic acid butyl ester] |
| 99 | CCCCOC(=O)N1CCN(C(=O)CNC(=O)c2nc(-c3ccccc3)sc2CCCOC)CC1 [Example 35, 4-(2-{[5-(3-Methoxy-propyl)-2-phenyl-thiazole-4-carbonyl]-amino}-acetyl)-piperazine-1-carboxylic acid butyl ester] |
| 696 | CCCCOC(=O)N1CCN(C(=O)[C@H](CO)NC(=O)c2nc(-c3ccccc3)sc2Br)CC1 [Example 37, 4-{(S)-2-[(5-Bromo-2-phenyl-thiazole-4-carbonyl)-amino]-3-hydroxy-propionyl}-piperazine-1-carboxylic acid butyl ester] |
| 35 | CCCCOC(=O)N1CCN(C(=O)[C@H](CO)NC(=O)c2nc(-c3ccccc3)sc2/C=C/C(=O)O)CC1 [Example 39, 4-((S)-2-{[5-((E)-2-Carboxy-vinyl)-2-phenyl-thiazole-4-carbonyl]-amino}-3-hydroxy-propionyl)-piperazine-1-carboxylic acid butyl ester] |
| 1160 | CCCCOC(=O)N1CCN(C(=O)CNC(=O)c2nc(-c3ccccc3)c(-c3ccccc3)s2)CC1 [Example 50, 4-{2-[(4,5-Diphenyl-thiazole-2-carbonyl)-amino]-acetyl}-piperazine-1-carboxylic acid butyl ester] |
| 380 | CCCCOC(=O)N1CCN(C(=O)CNC(=O)c2nc(-c3ccccc3)c(/C=C/COC)s2)CC1 [Example 51, 4-(2-{[5-((E)-3-Methoxy-propenyl)-4-phenyl-thiazole-2-carbonyl]-amino}-acetyl)-piperazine-1-carboxylic acid butyl ester] |

Reference: patent publication US8664203B2, “Thiazole derivatives and their use as P2Y12 receptor antagonists” (Actelion Pharmaceuticals Ltd., priority 2009, dated 2014)
